Experimental data reported in patent publication US20250313535A1, “ALPHA 4 BETA 7 INTEGRIN MODULATORS AND USES THEREOF” (DICE MOLECULES SV, INC., priority 2022, published 2025).

Columns and labels:
α4β1 integrin = α4β1 integrin (Homo sapiens (Human), UniProt P05556+P13612); experiment: Integrin Adhesion Assay: Protocol 2 (VCAM-coated plate, Jurkat cells, CellTiter GLO readout); type: cell-based; settings: determined by at least one of the assays described (protocol not specified)
Summary of the method: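 Jurkat cells (2×10^6 per mL) adhered to VCAM-coated (0.1 ug/well), BSA-blocked wells with compound (1% DMSO) for 1 h at 37° C in 10 mM HEPES, 150 mM NaCl, 1 mM MnCl2, 0.1 mM CaCl2. After four washes, bound cells were quantified by CellTiter-Glo luminescence. Percent inhibition versus DMSO and control-compound wells was fitted to a 4-parameter curve.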

α4β7 integrin = α4β7 integrin (Homo sapiens (Human), UniProt P13612+P26010); experiment: Integrin Adhesion Assay: Protocol 1 (MAdCAM-coated plate, RPMI-8866 cells, CellTiter GLO readout); type: cell-based; settings: integrin adhesion assay; determined by at least one of the assays described (protocol not specified)
Chain of α4β7 integrin (P13612 34-1032): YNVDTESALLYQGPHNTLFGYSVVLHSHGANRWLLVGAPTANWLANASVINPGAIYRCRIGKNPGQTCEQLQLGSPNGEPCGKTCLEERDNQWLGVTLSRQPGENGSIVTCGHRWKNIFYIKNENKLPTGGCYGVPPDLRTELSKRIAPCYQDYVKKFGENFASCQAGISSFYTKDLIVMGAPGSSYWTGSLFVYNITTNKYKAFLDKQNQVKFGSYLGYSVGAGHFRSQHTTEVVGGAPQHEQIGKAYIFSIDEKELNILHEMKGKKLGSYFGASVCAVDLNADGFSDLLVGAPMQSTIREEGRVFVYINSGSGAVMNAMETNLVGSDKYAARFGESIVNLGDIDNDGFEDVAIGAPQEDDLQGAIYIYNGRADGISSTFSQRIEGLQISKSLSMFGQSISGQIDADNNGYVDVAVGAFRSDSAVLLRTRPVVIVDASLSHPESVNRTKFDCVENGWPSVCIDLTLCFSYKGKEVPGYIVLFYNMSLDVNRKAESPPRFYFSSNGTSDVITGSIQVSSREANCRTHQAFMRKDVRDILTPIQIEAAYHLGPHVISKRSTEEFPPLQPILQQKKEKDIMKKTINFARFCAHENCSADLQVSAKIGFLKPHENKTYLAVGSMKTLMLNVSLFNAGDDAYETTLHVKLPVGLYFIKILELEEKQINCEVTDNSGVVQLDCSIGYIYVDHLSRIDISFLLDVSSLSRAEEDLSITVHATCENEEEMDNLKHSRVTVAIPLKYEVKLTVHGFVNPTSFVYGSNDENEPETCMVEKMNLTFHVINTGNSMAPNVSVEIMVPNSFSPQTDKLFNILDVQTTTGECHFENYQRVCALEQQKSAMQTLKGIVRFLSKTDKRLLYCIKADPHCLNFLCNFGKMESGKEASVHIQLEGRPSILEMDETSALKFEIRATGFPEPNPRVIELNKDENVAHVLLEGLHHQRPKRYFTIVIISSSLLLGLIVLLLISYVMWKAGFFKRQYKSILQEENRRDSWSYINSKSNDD
Chain of α4β7 integrin (P26010 20-798): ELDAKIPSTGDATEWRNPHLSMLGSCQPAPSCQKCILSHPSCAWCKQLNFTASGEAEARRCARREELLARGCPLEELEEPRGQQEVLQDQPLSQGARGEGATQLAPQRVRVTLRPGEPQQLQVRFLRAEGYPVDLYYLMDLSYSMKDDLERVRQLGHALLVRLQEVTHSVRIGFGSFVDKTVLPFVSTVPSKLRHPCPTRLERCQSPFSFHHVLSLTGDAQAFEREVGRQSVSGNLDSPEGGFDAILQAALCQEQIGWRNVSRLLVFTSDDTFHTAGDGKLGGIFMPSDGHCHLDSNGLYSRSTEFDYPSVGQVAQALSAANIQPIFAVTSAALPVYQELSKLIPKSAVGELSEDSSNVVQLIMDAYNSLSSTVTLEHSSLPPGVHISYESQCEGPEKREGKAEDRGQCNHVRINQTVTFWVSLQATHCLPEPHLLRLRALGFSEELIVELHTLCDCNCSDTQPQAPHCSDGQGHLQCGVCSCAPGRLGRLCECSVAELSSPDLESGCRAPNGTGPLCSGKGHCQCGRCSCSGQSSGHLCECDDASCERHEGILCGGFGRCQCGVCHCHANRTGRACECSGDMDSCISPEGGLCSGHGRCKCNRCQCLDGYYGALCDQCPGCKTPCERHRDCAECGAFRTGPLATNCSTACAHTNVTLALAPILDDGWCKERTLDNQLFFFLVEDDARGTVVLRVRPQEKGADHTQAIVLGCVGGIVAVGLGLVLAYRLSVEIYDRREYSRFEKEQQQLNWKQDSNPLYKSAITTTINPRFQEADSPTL
Summary of the method: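 RPMI-8866 cells (2×10^6 per mL) added with compounds (1% DMSO) to MAdCAM-coated wells blocked in HEPES/NaCl buffer with 1 mM MnCl2, 0.1 mM CaCl2, 1% BSA; 1 h at 37° C, 5% CO2. After four washes, bound cells read by CellTiter GLO luminescence; % inhibition vs DMSO and control wells, 4-parameter fit.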

Chain of α4β1 integrin (P13612 34-1032): as the sequence (P13612 34-1032) above
Chain of α4β1 integrin (P05556 21-798): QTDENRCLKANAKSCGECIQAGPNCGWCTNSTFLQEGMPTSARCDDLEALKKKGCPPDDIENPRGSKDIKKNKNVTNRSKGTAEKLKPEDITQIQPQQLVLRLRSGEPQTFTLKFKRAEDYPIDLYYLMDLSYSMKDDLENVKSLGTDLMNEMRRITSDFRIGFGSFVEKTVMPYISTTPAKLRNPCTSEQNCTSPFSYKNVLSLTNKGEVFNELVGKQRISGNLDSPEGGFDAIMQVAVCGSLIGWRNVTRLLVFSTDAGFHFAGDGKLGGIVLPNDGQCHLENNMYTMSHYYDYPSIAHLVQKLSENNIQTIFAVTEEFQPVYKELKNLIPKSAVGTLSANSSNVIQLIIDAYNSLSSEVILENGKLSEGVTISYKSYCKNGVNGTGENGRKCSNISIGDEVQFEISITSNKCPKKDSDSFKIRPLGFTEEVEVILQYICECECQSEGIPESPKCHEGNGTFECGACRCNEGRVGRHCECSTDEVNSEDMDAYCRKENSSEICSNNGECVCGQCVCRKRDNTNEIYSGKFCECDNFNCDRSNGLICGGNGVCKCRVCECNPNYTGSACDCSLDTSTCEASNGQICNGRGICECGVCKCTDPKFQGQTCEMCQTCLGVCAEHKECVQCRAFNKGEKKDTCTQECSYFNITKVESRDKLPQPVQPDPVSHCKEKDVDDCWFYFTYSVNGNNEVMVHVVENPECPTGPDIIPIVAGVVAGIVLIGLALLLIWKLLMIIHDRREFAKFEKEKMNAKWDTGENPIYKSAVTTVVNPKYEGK

COCCN1CCC(C)(C(=O)N[C@@H](Cc2cccc3c(-n4c(=O)ccn(C)c4=O)cccc23)C(=O)O)CC1 [Compound 159]
IC50 (α4β1 integrin): > 1 µM
IC50 (α4β7 integrin): 0.1 to 1 µM

CCN1CCC(C)(C(=O)N[C@@H](Cc2cccc3c(-n4c(=O)ccn(C)c4=O)cccc23)C(=O)O)CC1 [Compound 160]
IC50 (α4β1 integrin): > 1 µM
IC50 (α4β7 integrin): 0.01 to 0.1 µM

Cn1ccc(=O)n(-c2cccc3c(C[C@H](NC(=O)C4(C)CCCCC4)C(=O)O)cccc23)c1=O [Compound 161]
IC50 (α4β1 integrin): > 1 µM
IC50 (α4β7 integrin): 0.1 to 1 µM

Cn1ccc(=O)n(-c2cccc3c(C[C@H](NC(=O)C4(C)CCC(C)(C)CC4)C(=O)O)cccc23)c1=O [Compound 162]
IC50 (α4β1 integrin): > 1 µM
IC50 (α4β7 integrin): 0.1 to 1 µM

Cn1ccc(=O)n(-c2cccc3c(C[C@H](NC(=O)C4(C#N)CCN(CC(F)(F)F)CC4)C(=O)O)cccc23)c1=O [Compound 163]
IC50 (α4β1 integrin): > 1 µM
IC50 (α4β7 integrin): 0.01 to 0.1 µM

Cn1ccc(=O)n(-c2cccc3c(C[C@H](NC(=O)C4(F)CCN(CC(F)(F)F)CC4)C(=O)O)cccc23)c1=O [Compound 164]
IC50 (α4β1 integrin): > 1 µM
IC50 (α4β7 integrin): > 1 µM

Cn1ccc(=O)n(-c2cccc3c(C[C@H](NC(=O)C45CCC(C(F)(F)F)(CC4)CC5)C(=O)O)cccc23)c1=O [Compound 165]
IC50 (α4β1 integrin): > 1 µM
IC50 (α4β7 integrin): 0.1 to 1 µM

Cn1ccc(=O)n(-c2cccc3c(C[C@H](NC(=O)[C@@H]4C[C@H]5CC[C@@H](C4)N5CC(F)(F)F)C(=O)O)cccc23)c1=O [Compound 166]
IC50 (α4β1 integrin): > 1 µM
IC50 (α4β7 integrin): > 1 µM

Cn1ccc(=O)n(-c2cccc3c(C[C@H](NC(=O)c4c(F)cccc4CN4CCOCC4)C(=O)O)cccc23)c1=O [Compound 167]
IC50 (α4β1 integrin): 0.1 to 1 µM
IC50 (α4β7 integrin): < 0.01 µM

COC(=O)[C@H](Cc1cccc2c(-n3c(=O)ccn(C)c3=O)cccc12)NC(=O)c1c(F)cccc1CN1CCOCC1 [Compound 168]
IC50 (α4β1 integrin): > 1 µM
IC50 (α4β7 integrin): 0.1 to 1 µM

Cn1c(CCN2CC(F)C2)cc(=O)n(-c2cccc3c(C[C@H](NC(=O)c4c(F)cc(N5CCOC[C@@H]5C(F)(F)F)cc4F)C(=O)O)cccc23)c1=O [Compound 169]
IC50 (α4β1 integrin): > 1 µM
IC50 (α4β7 integrin): < 0.01 µM

Cn1ccc(=O)n(-c2cccc3c(C[C@H](NC(=O)c4c(F)cc(N5CCOC[C@H]5C(F)(F)F)cc4F)C(=O)O)cccc23)c1=O [Compound 170]
IC50 (α4β1 integrin): > 1 µM
IC50 (α4β7 integrin): 0.01 to 0.1 µM

CCOCc1cc(OC)c(-c2cccc3c(C[C@H](NC(=O)c4c(F)cc(N5CCOC[C@@H]5C(F)(F)F)cc4F)C(=O)O)cccc23)c(OC)c1 [Compound 171]
IC50 (α4β1 integrin): 0.1 to 1 µM
IC50 (α4β7 integrin): < 0.01 µM

CCOCc1cc(OC)c(-c2cccc3c(C[C@H](NC(=O)c4c(F)cccc4F)C(=O)O)cccc23)c(OC)c1 [Compound 172]
IC50 (α4β1 integrin): 0.1 to 1 µM
IC50 (α4β7 integrin): 0.01 to 0.1 µM

Cn1ccc(=O)n(-c2cccc3c(C[C@H](NC(=O)C(C)(C)c4cccc(-c5ccccc5)c4)C(=O)O)cccc23)c1=O [Compound 176]
IC50 (α4β1 integrin): > 1 µM
IC50 (α4β7 integrin): 0.1 to 1 µM

Cn1ccc(=O)n(-c2cccc3c(C[C@H](NC(=O)C(C)(C)CSc4cccc(C(F)(F)F)c4)C(=O)O)cccc23)c1=O [Compound 177]
IC50 (α4β1 integrin): > 1 µM
IC50 (α4β7 integrin): > 1 µM

Cn1ccc(=O)n(-c2cccc3c(C[C@H](NC(=O)C(C)(C)c4ccc(Oc5ccccc5)cc4)C(=O)O)cccc23)c1=O [Compound 178]
IC50 (α4β1 integrin): > 1 µM
IC50 (α4β7 integrin): > 1 µM

Cc1ccccc1-c1cccc(C(F)(F)C(=O)N[C@@H](Cc2cccc3c(-n4c(=O)ccn(C)c4=O)cccc23)C(=O)O)c1 [Compound 179]
IC50 (α4β1 integrin): > 1 µM
IC50 (α4β7 integrin): > 1 µM

Cn1ccc(C(F)(F)F)c(-c2nccc3c(C[C@H](NC(=O)c4c(F)cccc4F)C(=O)O)cccc23)c1=O [Compound 210]
IC50 (α4β1 integrin): > 1 µM
IC50 (α4β7 integrin): < 0.01 µM

Cn1ccc(C(F)(F)F)c(-c2nccc3c(C[C@H](NC(=O)c4c(F)cc5nc(CC(F)(F)F)[nH]c5c4F)C(=O)O)cccc23)c1=O [Compound 213]
IC50 (α4β1 integrin): > 1 µM
IC50 (α4β7 integrin): 0.01 to 0.1 µM

Cn1ccc(C(F)(F)F)c(-c2nccc3c(C[C@H](NC(=O)c4c(F)cc(N5CCOC[C@@H]5C(F)(F)F)cc4F)C(=O)O)cccc23)c1=O [Compound 214]
IC50 (α4β1 integrin): > 1 µM
IC50 (α4β7 integrin): < 0.01 µM
